pEC50, pIC50: −log10 of the molar value. Like-named read-outs stand apart in the source and are kept apart here.
Tested on: TLR2 induced IL-6 in peripheral blood mononuclear cells (PBMCs)
Experiment: PBMC TLR2 Induced IL-6 Assay
Type: cell-based
Details: lipoteichoic acid 10 μg/ml 5 h, IL-6 by ELISA
Protocol: PBMC TLR2 Induced IL-6 Assay
Peripheral blood mononuclear cells (PBMCs) were isolated from human blood containing the anti-coagulant EDTA (2.5 mM) by centrifugation over a FICOLL® gradient. PBMCs (250000 cells/well) were cultured in assay media (RPMI with 10% heat inactivated FCS) with compounds for 30 minutes at 37° C. in a 5% CO2 incubator. Following pretreatment with compounds, cells were stimulated for 5 hours with 10 μg/ml lipoteichoic acid (Invivogen, San Diego, Calif.), a TLR2 agonist. At the end of the culture, plates were centrifuged at 1800 rpm for 10 minutes to pellet the cells. Supernatants were harvested and analyzed for IL-6 levels by ELISA (BD Biosciences, San Jose, Calif.).

[1] = Homo sapiens, PBMC, 5 h, value marked * = EC50, read-out: Cell EC50 (*)

Compound Cc1cnc(Nc2cc(NC(C)C)c(C(=O)NC[C@@H](F)C(C)(C)O)cn2)c(F)c1 [Example 129] has a pEC50 [1] of 6.40.
CC(C)(O)[C@H](F)CNC(=O)c1cnc(Nc2ncc(C#N)cc2F)cc1NC1COC1 [Example 164] gave a pEC50 [1] of 6.76.
CC(C)(O)[C@H](F)CNC(=O)c1cnc(Nc2ncc(C#N)cc2F)cc1NC1CCCOC1 (some centres unmarked) [Example 98] showed a pIC50 (Homo sapiens, PBMC, 5 h, value without asterisk, read-out: Cell IC50) of 6.16.
In the case of CC(C)(O)[C@H](F)CNC(=O)c1cnc(Nc2ncc(C#N)c(N)n2)cc1NC1CC1 [Example 154], the pEC50 (human PBMCs, value marked * = EC50, read-out: Cell EC50 (*)) was 6.28.
In the case of CC(C)Nc1cc(Nc2ncc(C#N)cc2Cl)ncc1C(=O)NC1CCC(C(C)(C)O)CC1 (centres unmarked) [Example 102], the pEC50 [1] was 7.15.

Reference: patent US10544133B2, “Heteroaryl substituted pyridyl compounds useful as kinase modulators” (BRISTOL-MYERS SQUIBB COMPANY, priority 2012, dated 2020)
